IC50 data for 20 compounds are collected here from patent publication US9481654B2, “Compositions and methods for inhibition of the JAK pathway” (Rigel Pharmaceuticals, Inc., priority 2006, dated 2016).

Test [1] deals with primary human T-cells (IL-2 induced proliferation, JAK-1/JAK-3, Stat-5). Nature of the test: Primary Human T-Cell Proliferation Assay Stimulated with IL-2 (CellTiter-Glo). The test is classed as cell-based. The following applies: Table III Example 4. An outline of the steps:
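Pre-activated peripheral-blood T-cells (TCR/CD28 stimulated, IL-2-maintained) were IL-2-depleted, then plated in Yssel's medium with 80 U/mL IL-2 in the cell suspension and compound in duplicate. Proliferation ran 72 h at 37 °C; viable cells quantified by CellTiter-Glo ATP luminescence, with IL-2-omitted wells as unstimulated control.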

Test [2] has as its system IL-4 stimulated CD23 upregulation in human Ramos B cells (JAK-1/JAK-3, Stat-6). Briefly: Assay for Ramos B-Cell Line Stimulated with IL-4 (CD23 upregulation, FACS). The test is classed as cell-based. To be noted: Table III Example 3. An outline of the steps:
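Log-phase Ramos B cells (5×10^4 per point, RPMI with 5% serum) pre-incubated with compound or DMSO 1 h at 37° C, then stimulated with IL-4 at 50 units/mL final for 20-24 h. CD23 upregulation measured by staining and flow cytometry.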

As usually defined, the IC50 is the concentration at which inhibition is half-maximal. On to `Cc1cnc(Nc2cccc(S(=O)(=O)NCC3CC3)c2)nc1Nc1ccc(CNS(=O)(=O)C2CC2)cc1` [Compound I-180, N2-(3-cyclopropylmethylaminosulfonyl)phenyl-N4-(4-cyclopropylsulfonylaminomethyl)phenyl-5-methyl-2,4-pyrimidinediamine], for which the half-inhibitory concentration (IC50) came out at 148 nM in test [1] and 25.7 nM in test [2].
In the same order, the values of `COCCCNS(=O)(=O)c1ccc(Nc2ncc(C)c(Nc3ccc(CNS(=O)(=O)C4CC4)cc3)n2)cc1` [Compound I-181, N4-(4-cyclopropylsulfonylaminomethyl)phenyl-N2-[4-(3-methoxypropyl)aminosulfonyl]phenyl-5-methyl-2,4-pyrimidinediamine] are 121 nM and 73.1 nM.
In the same order, the values of `COCCCNS(=O)(=O)c1cccc(Nc2ncc(C)c(Nc3ccc(CNS(=O)(=O)C4CC4)cc3)n2)c1` [Compound I-182, N4-(4-cyclopropylsulfonylaminomethyl)phenyl-N2-[3-(3-methoxypropyl)aminosulfonyl]phenyl-5-methyl-2,4-pyrimidinediamine] are 55.1 nM and 25.7 nM.
In the same order, the values of `COCCNS(=O)(=O)c1cccc(Nc2ncc(C)c(Nc3ccc(CNS(=O)(=O)C4CC4)cc3)n2)c1` [Compound I-184, N4-(4-cyclopropylsulfonylaminomethyl)phenyl-N2-[3-(2-methoxyethyl)aminosulfonyl]phenyl-5-methyl-2,4-pyrimidinediamine] are 51.7 nM and 14.1 nM.
Consider `CNS(=O)(=O)c1cc(Nc2ncc(C)c(Nc3ccc(CNS(=O)(=O)C4CC4)cc3)n2)ccc1C` [Compound I-185, N4-(4-cyclopropylsulfonylaminomethyl)phenyl-5-methyl-N2-(4-methyl-3-methylaminosulfonyl)phenyl-2,4-pyrimidinediamine], for which the figures for the IC50 in test [1] and in test [2] were 41.1 nM and 22.5 nM, respectively.
In the same order, the values of `CCNS(=O)(=O)c1cc(Nc2ncc(C)c(Nc3ccc(CNS(=O)(=O)C4CC4)cc3)n2)ccc1C` [Compound I-186, N4-(4-cyclopropylsulfonylaminomethyl)phenyl-N2-(3-ethylaminosulfonyl-4-methyl)phenyl-5-methyl-2,4-pyrimidinediamine] are 40 nM and 19.5 nM.
Consider `CCCNS(=O)(=O)c1cc(Nc2ncc(C)c(Nc3ccc(CNS(=O)(=O)C4CC4)cc3)n2)ccc1C` [Compound I-187, N4-(4-cyclopropylsulfonylaminomethyl)phenyl-5-methyl-N2-(4-methyl-3-propylaminosulfonyl)phenyl-2,4-pyrimidinediamine], for which the IC50 came out at 101 nM in test [1] and 72.4 nM in test [2].
Take `C#CCNS(=O)(=O)c1cc(Nc2ncc(C)c(Nc3ccc(CNS(=O)(=O)C4CC4)cc3)n2)ccc1C` [Compound I-188, N4-(4-cyclopropylsulfonylaminomethyl)phenyl-5-methyl-N2-(4-methyl-3-propargylaminosulfonyl)phenyl-2,4-pyrimidinediamine]: the IC50 stood at 573 nM in test [1] and 43.6 nM in test [2].
Consider `Cc1ccc(Nc2ncc(C)c(Nc3ccc(CNS(=O)(=O)C4CC4)cc3)n2)cc1S(=O)(=O)NC(C)C` [Compound I-189, N4-(4-cyclopropylsulfonylaminomethyl)phenyl-N2-(3-isopropylaminosulfonyl-4-methyl)phenyl-5-methyl-2,4-pyrimidinediamine], for which the IC50 in test [1] turned out to be 34.4 nM; in test [2] it was 35.2 nM.
In the same order, the values of `COCCNS(=O)(=O)c1cc(Nc2ncc(C)c(Nc3ccc(CNS(=O)(=O)C4CC4)cc3)n2)ccc1C` [Compound I-190, N4-(4-cyclopropylsulfonylaminomethyl)phenyl-N2-[3-(2-methoxyethyl)aminosulfonyl-4-methyl]phenyl-5-methyl-2,4-pyrimidinediamine] are 101 nM and 72.6 nM.
On to `COCCCNS(=O)(=O)c1cc(Nc2ncc(C)c(Nc3ccc(CNS(=O)(=O)C4CC4)cc3)n2)ccc1C` [Compound I-191, N4-(4-cyclopropylsulfonylaminomethyl)phenyl-N2-[3-(3-methoxypropyl)aminosulfonyl-4-methyl]phenyl-5-methyl-2,4-pyrimidinediamine], for which the IC50 amounted to 79.9 nM in test [1] and 51.2 nM in test [2].
In the same order, the values of `Cc1ccc(Nc2ncc(C)c(Nc3ccc(CNS(=O)(=O)C4CC4)cc3)n2)cc1S(=O)(=O)NCC1CC1` [Compound I-192, N2-(3-cyclopropylmethylaminosulfonyl-4-methyl)phenyl-N4-(4-cyclopropylsulfonylaminomethyl)phenyl-5-methyl-2,4-pyrimidinediamine] are 43.4 nM and 54.7 nM.
`Cc1ccc(Nc2ncc(C)c(Nc3ccc(CNS(=O)(=O)C4CC4)cc3)n2)cc1S(=O)(=O)NCc1ccccc1` [Compound I-195, N2-(3-benzylaminosulfonyl-4-methyl)phenyl-N4-(4-cyclopropylsulfonylaminomethyl)phenyl-5-methyl-2,4-pyrimidinediamine]: the IC50 in test [1] stood at 104 nM; in test [2] it was 66.4 nM.
In the same order, the values of `Cc1ccc(Nc2ncc(C)c(Nc3ccc(CNS(=O)(=O)C4CC4)cc3)n2)cc1S(=O)(=O)Nc1ccccc1` [Compound I-202, N4-(4-cyclopropylsulfonylaminomethyl)phenyl-5-methyl-N2-(4-methyl-3-phenylaminosulfonyl)phenyl-2,4-pyrimidinediamine] are 184 nM and 86.5 nM.
Turning to `CNS(=O)(=O)c1ccc(Nc2ncc(C)c(Nc3cccc(CNS(=O)(=O)C4CC4)c3)n2)cc1` [Compound I-207, N4-(3-cyclopropylsulfonylaminomethyl)phenyl-5-methyl-N2-(4-methylaminosulfonyl)phenyl-2,4-pyrimidinediamine], the IC50 in test [1] is 158 nM; in test [2], 86.5 nM.
With `CCNS(=O)(=O)c1cccc(Nc2ncc(C)c(Nc3cccc(CNS(=O)(=O)C4CC4)c3)n2)c1` [Compound I-208, N4-(3-cyclopropylsulfonylaminomethyl)phenyl-N2-(3-ethylaminosulfonyl)phenyl-5-methyl-2,4-pyrimidinediamine], the IC50 in test [1] was found to be 45.8 nM; in test [2], 74.3 nM.
For the compound `COCCNS(=O)(=O)c1cc(Nc2ncc(C)c(Nc3cccc(CNS(=O)(=O)C4CC4)c3)n2)ccc1C` [Compound I-210, N4-(3-cyclopropylsulfonylaminomethyl)phenyl-N2-[3-(2-methoxyethyl)aminosulfonyl-4-methyl]phenyl-5-methyl-2,4-pyrimidinediamine], the IC50 in test [1] is 143 nM; in test [2], 128 nM.
In the same order, the values of `Cc1cnc(Nc2ccc(S(N)(=O)=O)cc2)nc1Nc1ccc2c(c1)CCN(S(=O)(=O)C1CC1)C2` [II-1, N2-(4-aminosulfonyl)phenyl-N4-[(N-cyclopropylsulfonyl)-1,2,3,4-tetrahydroisoquinolin-6-yl]-5-methyl-2,4-pyrimidinediamine] are 108 nM and 42.3 nM.
For `Cc1ccc(Nc2ncc(C)c(Nc3ccc4c(c3)CCN(S(=O)(=O)C3CC3)C4)n2)cc1S(N)(=O)=O` [II-3, N2-(3-aminosulfonyl-4-methyl)phenyl-N4-[(N-cyclopropylsulfonyl)-1,2,3,4-tetrahydroisoquinolin-6-yl]-5-methyl-2,4-pyrimidinediamine], the IC50 worked out at 47.5 nM in test [1] and 19.4 nM in test [2].
Take `Cc1cnc(Nc2cccc(S(N)(=O)=O)c2)nc1Nc1ccc2c(c1)CN(S(=O)(=O)C1CC1)C2` [II-8, N2-(3-Aminosulfonyl-phenyl)-N4-[(2-cyclopropylsulfonyl)-isoindolin-5-yl]-5-methyl-2,4-pyrimidinediamine]: the IC50 was 147 nM in test [1] and 97.9 nM in test [2].
